Test results published in article PMC13360702, “An Agonist/Antagonist Photo‐Switchable Vitamin D Mimetic Enables Bidirectional Optical Control of VDR” (Angewandte Chemie (International Ed. in English), 2026).

Molecular target: T1, VDR (Homo sapiens, UniProt P11473)
T1 construct: -CMV-VDR-LBD coding for the hinge region and; expressed in transfected cells; host or cells: HEK293T
T1 sequence (P11473 127-423 limits assumed): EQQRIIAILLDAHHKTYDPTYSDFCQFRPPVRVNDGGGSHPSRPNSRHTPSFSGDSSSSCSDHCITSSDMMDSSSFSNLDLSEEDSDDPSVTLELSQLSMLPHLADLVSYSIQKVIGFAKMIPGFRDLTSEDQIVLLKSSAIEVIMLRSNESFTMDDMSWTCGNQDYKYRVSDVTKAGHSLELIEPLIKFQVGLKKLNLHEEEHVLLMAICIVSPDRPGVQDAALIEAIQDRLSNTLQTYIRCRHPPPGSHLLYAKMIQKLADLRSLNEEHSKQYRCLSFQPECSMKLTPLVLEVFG
Test: fluorescent (mCherry) reporter gene assay, in‐cell VDR activation over time
Assay type: cell-based
Conditions: 1 µM
Description: To evaluate the potential of 10 for in‐cell control of VDR activity, we determined its light‐dependent effect over time (Figure 3a) using VDR‐induced expression of the fluorescent protein mCherry as reporter for non‐invasive monitoring. Under illumination with a Cell‐Disco [24]
FIGURE 3 Optical control of VDR activity with photo‐vitD (10). (a) 10 (1 µM) enabled light‐dependent in‐cell activation of VDR in a fluorescent (mCherry) reporter gene assay. Gray curve: dark; blue curve: Cell‐Disco (370 nm; 100 ms/10 s); yellow curve: dark for 10 h, then Cell‐Disco (370 nm); magenta curve: Cell‐Disco (370 nm) for 10 h, then Cell‐Disco (450 nm). Lines are the mean, shadows are S.E.M.; n = 6. (b–d) Phenotypic model of bone formation using human […] (ASC52telo hTERT cells) and cyclic treatment with dexamethasone, 2‐phospho‐L‐ascorbic acid, and glycerol 2‐phosphate over 15 days to induce osteogenesis. Alkaline phosphatase (ALP) activity (b) and von Kossa staining of hydroxyapatite (c; representative photomicrographs in d) were used as markers of osteogenesis. Experiments were performed in the dark (gray bars) and using a Cell‐Disco (370 nm, 100 ms/10 s; blue bars). Data are the mean±SD, n = 6. * p<0.05, ** p<0.01, *** p<0.001 (vs. respective dark or illuminated DMSO (diff.) ctrl or as indicated; ANOVA with Dunnett's multiple comparisons test).
Gal4-hybrid reporter gene assays. […] After 14−16 h incubation, luciferase activity was measured using the Dual -Glo Luciferase Assay System (Promega) according to the manufacturer’s protocol on a Tecan Spark luminometer (Tecan Deutschland GmbH, Crailsheim, Germany). […] EC 50 and IC50 values were calculated by fitting dose−response data with the equation “[agonist] vs response − variable slope (four parameters)” or “[inhibitor] vs response − variable slope (four parameters)” in GraphPad Prism (version 7, GraphPad software, La Jolla, CA, USA). […]
Fluorescent Reporter Gene Assay. The fluorescence reporter gene assay was performed in HEK293T […]

VDR‐induced mCherry fluorescence over time (without illumination (dark)): no increase in fluorescence
Compound: CCCc1cc(C(O)(CC)CC)ccc1-c1ccc(/N=N/c2ccc3cc(C(=O)O)ccc3c2)cc1C [compound 10]
VDR‐induced mCherry fluorescence over time (Cell‐Disco 370 nm for 10 h, then switched back to (E)‐state with 450 nm light): the increase in mCherry fluorescence ceased
VDR‐induced mCherry fluorescence over time (Cell‐Disco 370 nm, 100 ms/10 s ((Z)‐state)): mCherry fluorescence constantly increased
